Activity calls are given as the source filed them.
Columns and labels:
[1] = biological target: T1, Heat shock factor protein 1 (Mus musculus, UniProt P38532); experiment: inhibition of MG132-induced HSE-luciferase signal, confirmation, cell-based, NIH3T3, luminescence, dose retest (AID 2382); type: functional;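 also: NIH3T3 fibroblasts with HSF1-driven luciferase reporter stressed by proteasome inhibitor MG132; luminescence from HSF1-driven luciferase expression after 8 hours of MG132 stress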
T1 sequence (P38532 whole entry): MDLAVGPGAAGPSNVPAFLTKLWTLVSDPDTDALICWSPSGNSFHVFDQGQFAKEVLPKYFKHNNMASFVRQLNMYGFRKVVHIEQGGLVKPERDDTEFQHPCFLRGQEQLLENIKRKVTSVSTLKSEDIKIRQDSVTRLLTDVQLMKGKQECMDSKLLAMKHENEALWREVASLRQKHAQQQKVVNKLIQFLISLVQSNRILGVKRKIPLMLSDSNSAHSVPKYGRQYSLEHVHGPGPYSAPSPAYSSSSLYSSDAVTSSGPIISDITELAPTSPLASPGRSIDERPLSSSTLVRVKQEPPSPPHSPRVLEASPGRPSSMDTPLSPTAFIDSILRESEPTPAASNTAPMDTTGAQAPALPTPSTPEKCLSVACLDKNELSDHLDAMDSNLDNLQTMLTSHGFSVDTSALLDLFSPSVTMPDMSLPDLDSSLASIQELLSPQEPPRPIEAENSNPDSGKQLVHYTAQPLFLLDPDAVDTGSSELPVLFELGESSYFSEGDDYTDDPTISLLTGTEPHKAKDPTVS

[2] = biological target: T2, Microphthalmia-associated transcription factor (Homo sapiens, UniProt O75030); experiment: TRPM1 promoter luciferase signal decrease, dose response, MITF inhibitor project, cell-based, SK-MEL-5, cherry-picked, set 3 (AID 493073); type: functional
T2 sequence (O75030 whole entry): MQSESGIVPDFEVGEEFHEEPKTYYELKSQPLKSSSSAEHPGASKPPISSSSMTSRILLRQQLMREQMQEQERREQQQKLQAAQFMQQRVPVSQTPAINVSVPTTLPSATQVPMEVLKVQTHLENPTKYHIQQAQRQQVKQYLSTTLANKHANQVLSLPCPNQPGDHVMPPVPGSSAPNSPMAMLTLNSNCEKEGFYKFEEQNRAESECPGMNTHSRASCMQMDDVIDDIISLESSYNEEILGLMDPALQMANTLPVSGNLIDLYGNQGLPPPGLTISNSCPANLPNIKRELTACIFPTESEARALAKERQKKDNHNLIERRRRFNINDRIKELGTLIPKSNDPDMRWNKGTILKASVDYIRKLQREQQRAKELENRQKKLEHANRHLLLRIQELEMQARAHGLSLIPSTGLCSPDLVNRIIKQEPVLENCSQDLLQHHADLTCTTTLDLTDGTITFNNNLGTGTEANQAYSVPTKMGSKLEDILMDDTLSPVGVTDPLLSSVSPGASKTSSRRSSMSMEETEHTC

INS1 = experiment: beta cell apoptosis inhibitors, cytokine rescue, dose response, luminescence, retest (AID 449756); type: functional, cell-based; conditions: Rattus norvegicus;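 also: cell death triggered by IL-1 beta plus TNF-alpha plus IFN-gamma mixture; protective hits raise ATP signal compared with cytokine alone wells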
Paired box protein Pax-8 = Paired box protein Pax-8 (Homo sapiens, UniProt Q06710); experiment: inhibitors of PAX8-driven TPO luciferase reporter, dose response, RMG-I cells, cherry-pick (AID 687027); type: functional, cell-based;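 also: luciferase reporter driven by Pax8 target thyroperoxidase promoter measured by SteadyGlo luminescence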
Paired box protein Pax-8, sequence (Q06710 whole entry): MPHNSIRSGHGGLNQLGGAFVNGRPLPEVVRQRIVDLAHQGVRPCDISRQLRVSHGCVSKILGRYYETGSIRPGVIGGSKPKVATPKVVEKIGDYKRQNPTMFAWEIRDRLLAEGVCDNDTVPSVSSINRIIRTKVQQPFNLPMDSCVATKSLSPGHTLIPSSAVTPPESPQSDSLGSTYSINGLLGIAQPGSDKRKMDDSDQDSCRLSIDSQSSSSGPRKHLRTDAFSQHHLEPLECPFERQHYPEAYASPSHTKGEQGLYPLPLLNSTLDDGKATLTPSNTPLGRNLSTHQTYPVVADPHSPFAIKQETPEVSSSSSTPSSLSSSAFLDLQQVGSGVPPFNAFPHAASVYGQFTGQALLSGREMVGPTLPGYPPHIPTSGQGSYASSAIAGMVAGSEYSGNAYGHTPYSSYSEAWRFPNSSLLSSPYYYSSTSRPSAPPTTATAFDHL

Cytochrome P450 2C19 = Cytochrome P450 2C19 (Homo sapiens, UniProt P33261); experiment: Cytochrome panel assay with activity outcomes. Panel member name: p450-cyp2c19 Compounds with AC50 equal or less than 10 uM are considered active; type: functional; conditions: read-out: AC50
Cytochrome P450 2C19, sequence (P33261 whole entry): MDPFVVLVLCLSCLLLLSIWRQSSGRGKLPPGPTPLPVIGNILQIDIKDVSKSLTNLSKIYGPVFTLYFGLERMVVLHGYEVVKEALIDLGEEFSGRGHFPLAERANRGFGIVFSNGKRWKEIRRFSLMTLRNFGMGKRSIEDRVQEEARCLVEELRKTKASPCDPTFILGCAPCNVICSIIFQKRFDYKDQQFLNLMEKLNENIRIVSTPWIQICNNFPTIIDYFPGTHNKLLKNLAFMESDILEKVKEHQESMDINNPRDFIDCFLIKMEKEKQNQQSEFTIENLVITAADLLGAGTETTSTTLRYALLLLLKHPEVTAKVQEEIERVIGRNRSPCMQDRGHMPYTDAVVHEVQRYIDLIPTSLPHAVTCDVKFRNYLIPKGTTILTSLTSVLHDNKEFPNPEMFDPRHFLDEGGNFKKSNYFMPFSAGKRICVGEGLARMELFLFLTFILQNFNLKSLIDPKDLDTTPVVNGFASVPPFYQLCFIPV

Cytochrome P450 2C9 = Cytochrome P450 2C9 (Homo sapiens, UniProt P11712)
Cytochrome P450 2C9, sequence (P11712 whole entry): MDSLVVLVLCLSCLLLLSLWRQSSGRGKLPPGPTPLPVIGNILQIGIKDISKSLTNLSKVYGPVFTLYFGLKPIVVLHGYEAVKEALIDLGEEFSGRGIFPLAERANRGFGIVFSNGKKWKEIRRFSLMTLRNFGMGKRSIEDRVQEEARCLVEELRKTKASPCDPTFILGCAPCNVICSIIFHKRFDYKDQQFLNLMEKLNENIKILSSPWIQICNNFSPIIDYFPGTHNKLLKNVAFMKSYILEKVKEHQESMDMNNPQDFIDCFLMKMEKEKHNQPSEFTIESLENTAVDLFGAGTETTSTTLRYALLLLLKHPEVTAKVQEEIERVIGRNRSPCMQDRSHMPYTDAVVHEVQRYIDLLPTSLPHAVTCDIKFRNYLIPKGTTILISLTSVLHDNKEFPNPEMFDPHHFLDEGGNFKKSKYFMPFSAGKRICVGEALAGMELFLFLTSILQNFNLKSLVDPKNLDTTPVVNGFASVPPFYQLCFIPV

Cytochrome P450 2D6 = Cytochrome P450 2D6 (Homo sapiens, UniProt P10635);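 also: CYP2D6 member of a cytochrome P450 panel assay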
Cytochrome P450 2D6, sequence (P10635 whole entry): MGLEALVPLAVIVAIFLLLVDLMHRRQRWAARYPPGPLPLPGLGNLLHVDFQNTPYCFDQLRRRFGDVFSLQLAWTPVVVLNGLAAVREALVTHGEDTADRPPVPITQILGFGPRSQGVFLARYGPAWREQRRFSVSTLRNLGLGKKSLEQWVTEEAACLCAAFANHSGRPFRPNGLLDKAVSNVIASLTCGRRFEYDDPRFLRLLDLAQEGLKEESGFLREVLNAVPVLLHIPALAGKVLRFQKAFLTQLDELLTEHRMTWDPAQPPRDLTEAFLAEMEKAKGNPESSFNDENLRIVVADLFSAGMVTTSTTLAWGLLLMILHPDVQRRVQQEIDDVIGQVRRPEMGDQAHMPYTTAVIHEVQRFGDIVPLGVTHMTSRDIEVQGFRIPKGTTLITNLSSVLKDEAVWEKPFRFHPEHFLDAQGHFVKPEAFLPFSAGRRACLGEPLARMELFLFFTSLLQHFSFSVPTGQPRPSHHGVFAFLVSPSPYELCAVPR

[3] = biological target: T3, Corticotropin-releasing factor receptor 2/Corticotropin-releasing factor-binding protein (Homo sapiens, UniProt P24387+Q13324); experiment: activators of CRF receptor 2 with binding protein – uHTS hits, confirmation (AID 602473); type: functional; conditions: read-out: EC50_Mean
T3 sequence (Q13324 whole entry): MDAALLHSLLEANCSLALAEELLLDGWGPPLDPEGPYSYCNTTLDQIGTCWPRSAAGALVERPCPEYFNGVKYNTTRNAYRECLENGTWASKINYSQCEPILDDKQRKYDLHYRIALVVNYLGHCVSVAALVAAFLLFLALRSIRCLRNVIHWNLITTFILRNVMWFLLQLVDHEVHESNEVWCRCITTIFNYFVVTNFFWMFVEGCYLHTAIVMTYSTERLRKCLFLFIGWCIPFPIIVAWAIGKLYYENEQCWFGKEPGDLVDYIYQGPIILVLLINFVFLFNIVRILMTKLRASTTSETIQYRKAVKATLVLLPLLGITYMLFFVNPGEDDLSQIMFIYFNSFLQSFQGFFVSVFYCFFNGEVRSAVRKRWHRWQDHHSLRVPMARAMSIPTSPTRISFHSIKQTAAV
T3 sequence (P24387 whole entry): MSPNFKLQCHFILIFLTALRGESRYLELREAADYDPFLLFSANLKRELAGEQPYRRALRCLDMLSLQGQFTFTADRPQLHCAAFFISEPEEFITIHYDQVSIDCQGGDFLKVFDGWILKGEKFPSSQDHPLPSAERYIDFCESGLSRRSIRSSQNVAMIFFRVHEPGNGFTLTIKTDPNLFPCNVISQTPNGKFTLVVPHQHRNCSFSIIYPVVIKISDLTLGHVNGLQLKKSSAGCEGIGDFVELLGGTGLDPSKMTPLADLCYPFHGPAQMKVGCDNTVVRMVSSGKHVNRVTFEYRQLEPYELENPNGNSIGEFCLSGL

BJ [4] = experiment: cells; type: functional, cell-based; conditions: Homo sapiens
BJ [5] = experiment: cytotoxicity toward BJ-TERT-LT-ST fibroblasts, dose response, cell-based, RAS-independent, luminescence (AID 1935); type: functional; conditions: Homo sapiens;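 also: BJ fibroblasts immortalized with TERT plus LT and ST oncogenes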
BJ [6] = experiment: cytotoxicity toward BJ-TERT fibroblasts, dose response, cell-based, RAS-independent, luminescence (AID 1933); type: functional; conditions: Homo sapiens
[7] = cytotoxicity toward DRD oncogenic fibroblasts, dose response, cell-based, non-viral oncogenic, luminescence (AID 1934); type: functional; conditions: Homo sapiens
Leucine aminopeptidase = biological target: T4, Leucine aminopeptidase (Plasmodium falciparum 3D7, UniProt Q8IL11); experiment: P. falciparum M17LAP inhibitors, primary screen, biochemical, fluorogenic H-Leu-NHMec substrate, 1536-well (AID 1619); type: functional
T4 sequence (Q8IL11 whole entry): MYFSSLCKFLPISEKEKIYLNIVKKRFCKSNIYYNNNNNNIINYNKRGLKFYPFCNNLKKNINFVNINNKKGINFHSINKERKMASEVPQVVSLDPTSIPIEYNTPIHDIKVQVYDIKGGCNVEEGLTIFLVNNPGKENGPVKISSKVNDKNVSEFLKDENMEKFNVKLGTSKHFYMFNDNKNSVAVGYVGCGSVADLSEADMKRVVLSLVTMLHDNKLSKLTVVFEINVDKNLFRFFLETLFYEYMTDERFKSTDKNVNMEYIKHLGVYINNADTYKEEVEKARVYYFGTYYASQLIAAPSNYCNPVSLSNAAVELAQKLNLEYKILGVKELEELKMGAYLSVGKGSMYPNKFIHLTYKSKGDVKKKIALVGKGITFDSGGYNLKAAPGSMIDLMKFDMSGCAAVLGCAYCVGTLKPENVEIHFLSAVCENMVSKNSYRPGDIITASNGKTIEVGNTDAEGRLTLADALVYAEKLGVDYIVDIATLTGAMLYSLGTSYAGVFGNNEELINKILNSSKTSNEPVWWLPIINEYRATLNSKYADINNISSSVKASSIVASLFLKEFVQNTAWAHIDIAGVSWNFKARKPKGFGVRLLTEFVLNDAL

Protein RecA = biological target: T5, Protein RecA (Mycobacterium tuberculosis, UniProt P9WHJ3); experiment: Fluorescence Cell-Free Homogeneous Dose Retest to Identify Inhibitors of RecA-Intein Splicing Activity. [Related pubchem assays (depositor defined):AID2097, AID2223, AID489010, AID492950]; type: functional
T5 sequence (P9WHJ3 whole entry): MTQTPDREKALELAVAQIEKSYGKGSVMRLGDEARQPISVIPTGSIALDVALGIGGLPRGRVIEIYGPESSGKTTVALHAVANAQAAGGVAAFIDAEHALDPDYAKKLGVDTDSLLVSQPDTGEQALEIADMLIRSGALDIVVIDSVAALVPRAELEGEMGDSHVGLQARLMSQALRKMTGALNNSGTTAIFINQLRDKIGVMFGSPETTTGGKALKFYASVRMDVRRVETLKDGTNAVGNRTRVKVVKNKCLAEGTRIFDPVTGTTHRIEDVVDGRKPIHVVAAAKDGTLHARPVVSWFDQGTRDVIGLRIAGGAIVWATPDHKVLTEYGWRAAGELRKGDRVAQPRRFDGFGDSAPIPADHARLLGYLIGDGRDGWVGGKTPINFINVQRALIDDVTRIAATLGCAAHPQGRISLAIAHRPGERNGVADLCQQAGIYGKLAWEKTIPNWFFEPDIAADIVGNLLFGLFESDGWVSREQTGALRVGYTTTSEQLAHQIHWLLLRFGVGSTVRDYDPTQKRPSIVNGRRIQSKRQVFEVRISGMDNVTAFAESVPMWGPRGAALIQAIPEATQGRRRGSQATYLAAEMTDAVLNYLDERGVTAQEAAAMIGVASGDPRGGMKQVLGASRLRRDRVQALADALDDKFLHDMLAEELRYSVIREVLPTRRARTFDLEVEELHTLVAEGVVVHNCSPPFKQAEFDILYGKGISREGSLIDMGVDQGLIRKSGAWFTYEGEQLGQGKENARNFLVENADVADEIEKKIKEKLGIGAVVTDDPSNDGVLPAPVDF

[8] = biological target: T6, Replicative DNA helicase DnaB (Mycobacterium tuberculosis, UniProt P9WMR3); experiment: DnaB intein splicing inhibitors, dose response, biochemical, cell-free fluorescence (AID 449749); type: functional
T6 sequence (P9WMR3 whole entry): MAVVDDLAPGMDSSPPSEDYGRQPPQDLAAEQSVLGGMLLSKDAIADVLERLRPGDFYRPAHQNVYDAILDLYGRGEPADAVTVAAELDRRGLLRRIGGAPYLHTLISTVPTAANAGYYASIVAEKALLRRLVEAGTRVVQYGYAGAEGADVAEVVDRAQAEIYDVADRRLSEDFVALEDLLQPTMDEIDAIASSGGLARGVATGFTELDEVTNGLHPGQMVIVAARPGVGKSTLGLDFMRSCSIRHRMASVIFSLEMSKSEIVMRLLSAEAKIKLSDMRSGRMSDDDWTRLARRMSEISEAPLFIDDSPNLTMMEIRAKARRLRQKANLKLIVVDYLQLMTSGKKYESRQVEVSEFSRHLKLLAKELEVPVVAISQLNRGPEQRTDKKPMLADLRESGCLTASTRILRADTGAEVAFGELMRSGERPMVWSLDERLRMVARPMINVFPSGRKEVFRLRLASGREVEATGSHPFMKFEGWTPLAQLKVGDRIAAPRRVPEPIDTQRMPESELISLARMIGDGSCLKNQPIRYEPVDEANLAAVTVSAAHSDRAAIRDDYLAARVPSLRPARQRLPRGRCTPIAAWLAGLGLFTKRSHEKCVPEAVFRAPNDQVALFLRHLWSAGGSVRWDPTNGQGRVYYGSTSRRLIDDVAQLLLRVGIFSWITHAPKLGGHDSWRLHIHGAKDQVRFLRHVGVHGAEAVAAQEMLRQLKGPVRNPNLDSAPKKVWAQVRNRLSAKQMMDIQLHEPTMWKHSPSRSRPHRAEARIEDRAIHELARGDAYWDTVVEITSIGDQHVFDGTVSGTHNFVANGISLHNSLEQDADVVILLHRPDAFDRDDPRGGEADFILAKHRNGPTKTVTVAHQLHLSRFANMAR

CC1(C)Cc2c(sc(NC(=O)c3ccc4ncsc4c3)c2C(N)=O)C(C)(C)N1
EC50 [1]: > 195 µM (not active) | AC50 [2]: 10.1 µM (active)

Cc1cc(C(C)(C)C)cc(C)c1C[n+]1c2n(c3ccc(C(F)(F)F)cc31)CCCCC2
AC50 (INS1): 3.43 µM (active) | AC50 (Paired box protein Pax-8): 4.37 µM (active) | AC50 [2]: 7.55 µM (active)

CCOC(=O)C1=NOC(CNC(=O)C2=NOC(CNC(=O)c3c(-c4ccccc4Cl)noc3C)C2)C1 (stereo unspecified)
AC50 (Cytochrome P450 2C19): 20 µM (inconclusive) | AC50 (Cytochrome P450 2C9): inconclusive

CCOc1ccc(-n2c(O)nnc2SCC(=O)Nc2ccccc2C)cc1
AC50 (Cytochrome P450 2C9): inconclusive

C=CCSc1nc(NC)c2sccc2n1
AC50 (Cytochrome P450 2C9): inconclusive

Cc1c(C)n(C)c2ccc(C(=O)Nc3cccc4ccccc34)cc12
AC50 (Cytochrome P450 2D6): 11.2 µM (inconclusive) | AC50 (Cytochrome P450 2C9): inconclusive

Cc1cc2c(C(F)(F)F)cc(=O)oc2c2c1NCCC2
EC50 [3]: 1.12 µM (active) | AC50 (Cytochrome P450 2C19): 1.26 µM (inconclusive) | AC50 (Cytochrome P450 2C9): inconclusive

COc1cc2c(c(OC)c1OC)-c1ccc(OC)c(=O)cc1C(NC(C)=O)CC2 (stereo unspecified)
EC50 (BJ [4]): 0.627 µM (inconclusive) | EC50 (BJ [5]): 0.249 µM (active) | EC50 (BJ [6]): 0.348 µM (active) | AC50 (Paired box protein Pax-8): < 0.26 µM (active) | AC50 [2]: 0.056 µM (active) | EC50 [7]: 0.351 µM (active)

CCc1cccc(NC(=O)CSCc2cc(O)[nH]n2)c1
IC50 (Leucine aminopeptidase): 25.9 µM (active) | EC50 (Protein RecA): 2.37 µM (active) | AC50 [8]: 3.37 µM (active)

COc1ccc(CNC(=O)C2CC(c3cccc([N+](=O)[O-])c3)=NO2)cc1 (stereo unspecified)
AC50 (Cytochrome P450 2C9): inconclusive

COc1ccccc1CNC(=O)C1CCN(S(=O)(=O)N2CC(C)CC(C)C2)CC1 (stereo unspecified)
AC50 (Cytochrome P450 2C19): 39.8 µM (inconclusive) | AC50 (Cytochrome P450 2C9): inconclusive

From ChEMBL document CHEMBL1201862, “PubChem BioAssay data set” (2004)
